Entries after “also recorded” stand apart in the source; their conditions may differ.
Tests used:
ALS patients = details: cited from earlier work
[1] = tested on: G93A amyotrophic lateral sclerosis model mice; assay: Butyrate treated mice model: oral sodium butyrate in drinking water, body weight and survival; assay type: in vivo, mouse
Text: Nine G93A mice were divided into a […] (n=4) and a butyrate group (n=5). Butyrate mice started to drink 2% sodium butyrate in the drinking water bottle from age 63 days, without treatment mice drank regular water mice. Without treatment mice died on day 127, 133, 143, 155 separately.
Mice were divided into control and butyrate group. Butyrate group mice were given 2% sodium butyrate (Sigma, St. Louis, Mo.) water ad libitum from age 63 days. The untreated control group was maintained on tap water throughout the experiment. Without treatment mice died on day 127, 133, 143, 155 separately.

Compound | patient life span (ALS patients; FDA approved treatment) | relief of symptoms (ALS patients) | body weight loss ([1]; 2% sodium butyrate in drinking water ad libitum from age 63 days, n=5, vs untreated G93A mice n=4 (FIG. 4A)) | additional survival time of butyrate mice ([1]; 2% sodium butyrate in drinking water from age 63 days, relative to untreated mice that died on day 127-155) | survival ([1]; 2% sodium butyrate in drinking water from age 63 days, untreated mice died on day 127, 133, 143, 155 (FIG. 4B))
Nc1nc2ccc(OC(F)(F)F)cc2s1 [Riluzole] | extends patient life span for only a few months | does not relieve symptoms |  |  | 
CCCC(=O)[O-].[Na+] [sodium butyrate] |  |  | prevents body weight loss | survived at least one additional month or longer | extends survival time; also recorded: All the butyrate mice survived
